Test [1] deals with T1, 5-HT2a (Rattus norvegicus, UniProt P14842).
T1 construct: endogenous in cells; host or cells: A7r5 rat vascular smooth muscle cells
Nature of the test: 5-HT2 functional assay: [Ca2+]i mobilization (FLIPR) in A7r5 cells. Type of test: cell-based. Particulars: for Emax: read-out: FLIPR 5-HT2a % Emax A7r5 Ca + 2. The method, then:
The receptor-mediated mobilization on intracellular calcium ([Ca^2+]i) was studied using the Fluorescence Imaging Plate Reader (FLIPR) instrument. Rat vascular smooth muscle cells, A7r5, were grown in a normal media of DMEM/10% FBS and 10 μg/mL gentamycin. Confluent cell monolayers were trypsinized, pelleted, and re-suspended in normal media. Cells were seeded in a 50 μL volume at a density of 20,000 cells/well in a black wall, 96-well tissue culture plate and grown for 2 days.
On the day of the experiment, one vial of FLIPR Calcium Assay Kit dye was re-suspended in 50 mL of a FLIPR buffer consisting of Hank's Balanced Salt Solution (HBSS), 20 mM HEPES, and 2.5 mM probenecid, pH 7.4. Cells were loaded with the calcium-sensitive dye by addition of an equal volume ([…]) to each well of the 96-well plate and incubated with dye for 1 h at 23° C.
Typically, test compounds were stored at 25 μM in 50% DMSO/50% Ethanol solvent. Compounds were diluted 1:50 in 20% DMSO/20% Ethanol. For “hit” screening, compounds were further diluted 1:10 in FLIPR buffer and tested at a final concentration of 10 μM. For dose-response experiments, compounds were diluted 1:50 in FLIPR buffer and serially diluted 1:10 to give a 5- or 8-point dose-response curve.
The compound plate and cell plate were placed in the FLIPR instrument. At the beginning of an experimental run, a signal test was performed to check the basal fluorescence signal from the dye-loaded cells and the uniformity of the signal across the plate. The basal fluorescence was adjusted between 8000–12000 counts by modifying the exposure time, the camera F-stop, or the laser power. Instrument settings for a typical assay were the following: laser power 0.3–0.6 W, camera F-stop F/2, and exposure time 0.4 sec. An aliquot (25 μL) of the test compound was added to the existing 100 μL dye-loaded cells at a dispensing speed of 50 μL/sec. Fluorescence data were collected in real-time at 1.0 sec intervals for the first 60 secs and at 6.0 sec intervals for an additional 120 secs. Responses were measured as peak fluorescence intensity minus basal and where appropriate were expressed as a percentage of a maximum 5-HT-induced response.

The target of test [2] is T2, 5-HT2 receptor (Rattus norvegicus, UniProt P14842). Nature of the test: 5-HT2 receptor binding assay ([125I]DOI competition, cerebral cortex homogenates). Particulars: 5-point, read-out: Rat Cerebral Cortex 5-HT2 IC50 5-pt (DOI). The protocol:
The assay mixture is incubated for 1 hour at 23° C. in polypropylene tubes and the assays terminated by rapid vacuum filtration over Whatman GF/B glass fiber filters previously soaked in 0.3% polyethyleneimine using ice-cold buffer. Test compounds (at different concentrations) are substituted for methiothepin. Filter-bound radioactivity is determined by scintillation spectrometry on a beta counter. The data are analyzed using a non-linear, iterative curve-fitting computer program [Trends Pharmacol. Sci., 16, 413 (1995)] to determine the compound affinity parameter.

The conditions of test [3]: monkey; Wang et al. 1997/1998; attributed to α1A receptor activity; cited from earlier work.
In test [4] the target is T2, 5-HT2 receptor. Nature of the test: 5-HT2 functional assay: phosphoinositide (PI) turnover in A7r5 cells. Type of test: cell-based. Set-up: [^3H]myo-inositol-labeled A7r5 rat vascular smooth muscle cells; endogenous in cells; host or cells: A7r5 rat vascular smooth muscle cells. The method, then:
The relative agonist activity of serotonergic compounds at the 5-HT2 receptor can be determined in vitro using the ability of the compounds to stimulate the production of [^3H]inositol phosphates in [^3H]myo-inositol-labeled A7r5 rat vascular smooth muscle cells by their ability to activate the enzyme phospholipase C. These cells are grown in culture plates, maintained in a humidified atmosphere of 5% CO2 and 95% air and fed semi-weekly with Dulbecco's modified Eagle medium (DMEM) containing 4.5 g/L glucose and supplemented with 2 mM glutamine, 10 μg/ml gentamicin, and 10% fetal bovine serum. For the purpose of conducting the phosphoinositide (PI) turnover experiments, the A7r5 cells are cultured in 24-well plates as previously [J. Pharmacol. Expt. Ther. 286, 411 (1998)]. Confluent cells are exposed for 24–30 hrs to 1.5 μCi [^3H]-myo-inositol (18.3 Ci/mmol) in 0.5 ml of serum-free medium. Cells are then rinsed once with DMEM/F-12 containing 10 mM LiCl prior to incubation with the test agent (or solvent as the control) in 1.0 mL of the same medium for 1 hr at 37° C., after which the medium is aspirated and 1 ml of cold 0.1 M formic acid added to stop the reaction. The chromatographic separation of [^3H]-inositol phosphates ([^3H]-IPs) on an AG-1-X8 column is performed as previously described [J. Pharmacol. Expt. Ther. 286, 411 (1998)] with sequential washes with H2O and 50 mM ammonium formate, followed by elution of the total [^3H]-IPs fraction with 1.2 M ammonium formate containing 0.1 M formic acid. The eluate (4 mL) is collected, mixed with 15 ml scintillation fluid, and the total [^3H]-IPs determined by scintillation counting on a beta-counter. Concentration-response data are analyzed by the sigmoidal fit function of the Origin Scientific Graphics software (Microcal Software, Northampton, Mass.) to determine agonist potency (EC50 value) and efficacy (Emax).

The conditions of test [5]: rabbits; Osborne et al. 1996; cited from earlier work.
Where [6] appears, read: A7r5 cells, percentage of maximum 5-HT-induced response.
Where [7] appears, read: A7r5 cells, Ca2+ mobilization, read-out: FLIPR 5-HT2a EC50.

Counter-ions that a name gives are not always drawn. Like-named read-outs stand apart in the source and are kept apart here.

What is called IC50 is the point on the concentration scale where inhibition reaches its midpoint. As a reminder, the EC50 is the midpoint of the concentration-response curve. Usually Emax stands for the maximal effect, on the per cent scale that the assay sets.

T2 sequence (P14842 whole entry): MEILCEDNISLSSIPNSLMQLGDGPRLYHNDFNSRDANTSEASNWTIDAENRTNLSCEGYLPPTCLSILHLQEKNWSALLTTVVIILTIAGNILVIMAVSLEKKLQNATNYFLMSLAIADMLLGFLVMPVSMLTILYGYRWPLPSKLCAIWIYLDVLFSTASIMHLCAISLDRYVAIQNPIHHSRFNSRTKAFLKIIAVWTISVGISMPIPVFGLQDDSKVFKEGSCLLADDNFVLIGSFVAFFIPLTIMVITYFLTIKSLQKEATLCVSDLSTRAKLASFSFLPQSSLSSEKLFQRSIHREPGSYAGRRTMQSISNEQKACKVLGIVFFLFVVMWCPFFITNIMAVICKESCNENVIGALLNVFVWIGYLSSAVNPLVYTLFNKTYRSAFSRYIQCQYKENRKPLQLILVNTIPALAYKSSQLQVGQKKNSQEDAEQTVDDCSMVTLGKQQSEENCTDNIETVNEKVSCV
T1 sequence (P14842 whole entry): as above

Take “2-amino-1-(3,8-dimethoxy-naphthalen-2-yl)-propan-1-ol hydrochloride [Example 6]”: the “FLIPR 5-HT2a % Emax A7r5 Ca + 2” value in test [1] (setting [6]) stood at 17.8%. The IC50 in test [2] was 4.92 nM.

Take `COc1ccccc1N1CCN(CCCNc2c(C)c(=O)n(C)c(=O)n2C)CC1` [5-methylurapidil]: the “effect on IOP” value in test [3] is “lowers IOP”.

Take `COc1cc(CC(C)N)c(OC)c2ccccc12` (centres unmarked) [Example 1, 2-(1,4-Dimethoxy-naphthalen-2-yl)-1-methylethylamine hydrochloride]: the concentration for a half-maximal effect (EC50) in test [1] worked out at 188 nM; in test [4], 238 nM. The Emax turned out to be 46.5% in test [1] (setting [6]) and 118% in test [4] (A7R5; read-out: Efficacy (Emax, %)).

Consider `COc1cc(C(O)C(C)N)c(OC)c2ccccc12` (centres unmarked) [Example 2, 2-Amino-1-(1,4-dimethoxy-naphthalen-2-yl)-propan-1-ol hydrochloride], for which the values for the EC50 in test [1] (setting [7]) and in test [4] were 1490 nM and 6810 nM, respectively. Moreover, the maximum response (Emax) was 26.9% in test [1] (setting [6]) and 113% in test [4] (A7R5, read-out: Efficacy (Emax, %)).

Take `COc1cc([C@H](O)[C@@H](C)N)c(OC)c2ccccc12` [Example 3, (1S,2R)-2-Amino-1-(1,4-dimethoxy-naphthalen-2-yl)-propan-1-ol hydrochloride]: the 50% effective concentration (EC50) in test [1] (setting [7]) is 1410 nM. Further, the Emax in test [1] (setting [6]) was determined as 28.4%.

On to `COc1c(CC(C)N)ccc2ccccc12` (centres unmarked) [Example 4, 2-(1-Methoxy-naphthalen-2-yl)-1-methylethylamine hydrochloride], for which, in test [1], the midpoint of the response, the EC50, lay at 580 nM. Also, in test [1] (setting [6]), the maximum response (Emax) amounted to 28.9%.

Take `COc1c(CC(C)N)cc(Br)c2ccccc12` (centres unmarked) [Example 5, 2-(4-Bromo-1-methoxy-naphthalen-2-yl)-1-methylethylamine hydrochloride]: in test [1], it took 1120 nM to reach a half-maximal effect (EC50). For the same molecule, in test [1] (setting [6]), the maximum response (Emax) is 38.9%.

As to `CC(N)Cc1ccc2ccccc2c1O` (centres unmarked) [Example 7, 2-(1-hydroxy-naphthalen-2-yl)-1-methylethylamine hydrochloride], the Emax in test [1] (setting [6]) was determined as 17.3%.

Turning to `COc1ccc(OC)c2cc(CC(C)N)ccc12` (centres unmarked) [Example 8, 2-(5,8-dimethoxy-naphthalen-2-yl)-1-methylethylamine hydrochloride], the Emax in test [1] (setting [6]) stood at 2.6%.

Regarding `CCCN(CCC)C1CCc2cccc(O)c2C1` (centres unmarked) [Example 8-OH-DPAT, 8-hydroxydipropylaminotetralin], in test [5], the “effect on IOP” value is “reduces IOP”.

For `COc1cc(C(=O)C(C)N)c(OC)c2ccccc12` (centres unmarked) [Example 9, 2-amino-1-(1,4-dimethoxy-naphthalen-2-yl)-propan-1-one hydrochloride], the Emax in test [1] (setting [6]) was 21.8%.

As for `CC(N)Cc1ccc2ccccc2c1` (centres unmarked) [Example 10, 2-(naphthalen-2-yl)-1-methylethylamine hydrochloride], the maximal response (Emax) in test [1] (setting [6]) turned out to be 20.4%.

For the molecule `COc1cc(CC(C)N)cc2ccccc12` (centres unmarked) [Example 11, 2-(4-methoxy-naphthalen-2-yl)-1-methylethylamine hydrochloride], the concentration for a half-maximal effect (EC50) in test [1] turned out to be 612 nM. Also, the Emax in test [1] (setting [6]) turned out to be 46.4%.

As to `COc1cc(CC(C)N)c(Br)c2ccccc12` (centres unmarked) [Example 12, 2-(1-Bromo-4-methoxy-naphthalen-2-yl)-1-methylethylamine hydrochloride], in test [1], the 50% effective concentration (EC50) stood at 911 nM. Besides, the Emax in test [1] (setting [6]) amounted to 37.4%.

The values above are taken from US7071225B2, “Arylaminopropane analogues and their use for the treatment of glaucoma” (Alcon, Inc., priority 2001, dated 2006).
